The structures appear in SMILES notation. A value given as a limit tells only on which side of the number the result lay.

For series [1], the system named is conversion of T cells into CD4+FoxP3+ Tregs. The following applies: co-culture of DCs and naive CD4+CD25- T cells; cited from earlier work.
The subject of the next series is PANO2 pancreatic cells. The following applies: orally dosed, cited from earlier work.
The nature of series [2]: Rat oral PK studies of prodrugs at 5 mg/kg. Conditions: after PO dose of 5 mg/kg example 7 in male Wistar Han rat; analyte as labelled. The series is classed as in vivo. As to the method: Rat oral PK studies of prodrugs at 5 mg/kg dose (solution in 100% (40 mg oleic acid+25mg Tween 80+2 mL of PBS/fresh) at 0.5 mg/mL).
Series [3] relates to human peripheral blood mononuclear cells (PBMC). Put plainly: PBMC cytotoxicity assay (CellTiter-Glo). Format: cell-based. The following applies: pCC50, CellTiter-Glo, stimulated human PBMC, 2 days. Here is the method:
(§1) Compounds of the present invention were tested via high-throughput cellular assays utilizing detection of kynurenine via mass spectrometry and cytotoxicity as end-points. For the mass spectrometry and cytotoxicity assays, human peripheral blood mononuclear cells (PBMC) (PB003F; AllCells®, Alameda, Calif.) were stimulated with human interferon-γ (IFN-γ) (Sigma-Aldrich Corporation, St. Louis, Mo.) and lipopolysaccharide from Salmonella minnesota (LPS) (Invivogen, San Diego, Calif.) to induce the expression of indoleamine 2, 3-dioxygenase (IDO1). Compounds with IDO1 inhibitory properties decreased the amount of kynurenine produced by the cells via the tryptophan catabolic pathway. Cellular toxicity due to the effect of compound treatment was measured using CellTiter-Glo® reagent (CTG) (Promega Corporation, Madison, Wis.), which is based on luminescent detection of ATP, an indicator of metabolically active cells.
(§2) In preparation for the assays, test compounds were serially diluted 3-fold in
(§3) DMSO from a typical top concentration of 1 mM or 5 mM and plated at 0.5 μL in 384-well, polystyrene, clear bottom, tissue culture treated plates with lids (Greiner Bio-One, Kremsmünster, Austria) to generate 11-point dose response curves. Low control wells (0% kynurenine or 100% cytotoxicity) contained either 0.5 μL of DMSO in the presence of unstimulated (−IFN-γ/−LPS) PBMCs for the mass spectrometry assay or 0.5 μL of DMSO in the absence of cells for the cytotoxicity assay, and high control wells (100% kynurenine or 0% cytotoxicity) contained 0.5 μL of DMSO in the presence of stimulated (+IFN-γ/+LPS) PBMCs for both the mass spectrometry and cytotoxicity assays.
(§4) Frozen stocks of PBMCs were washed and recovered in RPMI 1640 medium (Thermo Fisher Scientific, Inc., Waltham, Mass.) supplemented with 10% v/v heat-inactivated fetal bovine serum (FBS) (Thermo Fisher Scientific, Inc., Waltham, Mass.), and 1× penicillin-streptomycin antibiotic solution (Thermo Fisher Scientific, Inc., Waltham, Mass.). The cells were diluted to 1,000,000 cells/mL in the supplemented RPMI 1640 medium. 50 μL of either the cell suspension, for the mass spectrometry assay, or medium alone, for the cytotoxicity assay, were added to the low control wells, on the previously prepared 384-well compound plates, resulting in 50,000 cells/well or 0 cells/well respectively. IFN- y and LPS were added to the remaining cell suspension at final concentrations of 100 ng/ml and 50 ng/ml respectively, and 50 μL of the stimulated cells were added to all remaining wells on the 384-well compound plates. The plates, with lids, were then placed in a 37 °C, 5% CO2 humidified incubator for 2 days.
(§5) Following incubation, the 384-well plates were removed from the incubator and allowed to equilibrate to room temperature for 30 minutes. For the cytotoxicity assay, CellTiter-Glo® was prepared according to the manufacturer's instructions, and 40 μL were added to each plate well. After a twenty minute incubation at room temperature, luminescence was read on an EnVision® Multilabel Reader (Perkin Elmer Inc., Waltham, Mass.). For the mass spectrometry assay, 10 μL of supernatant from each well of the compound-treated plates were added to 40 μL of acetonitrile, containing 10 μM of an internal standard for normalization, in 384-well, polypropylene, V-bottom plates (Greiner Bio-One, Kremsmunster, Austria) to extract the organic analytes. Following centrifugation at 2000 rpm for 10 minutes, 10 μL from each well of the acetonitrile extraction plates were added to 90 μL of sterile, distilled H2O in 384-well, polypropylene, V-bottom plates for analysis of kynurenine and the internal standard on the RapidFire 300 (Agilent Technologies, Santa Clara, Calif.) and 4000 QTRAP MS (SCIEX, Framingham, Mass.). MS data were integrated using Agilent Technologies' RapidFire Integrator software, and data were normalized for analysis as a ratio of kynurenine to the internal standard. […]

The target of series [4] is T1, indoleamine 2, 3-dioxygenase (IDO1) (Homo sapiens, UniProt P14902).
T1 construct: to induce the expression of indoleamine 2, 3-dioxygenase (IDO1); host or cells: human PBMC stimulated with IFN-gamma and LPS
In words: IDO1 PBMC RapidFire MS assay (kynurenine detection). Format: cell-based. Conditions: IFN-γ/LPS stimulated human PBMC, kynurenine by MS, 2 days; read-out: PBMC PXC50 (converted). As to the method:
as §1, §2, §3, §4, §5

Series [5] is described as follows: Plasma PK and tissue distribution after oral dosing of prodrug EXAMPLE 7 (5 mg/kg). Conditions: PO 5 mg/kg EXAMPLE 7 (prodrug), male Wistar Han rat, analyte as labelled. Format: in vivo. As to the method: Tissue Distribution of drug intermediate C4 from oral dosing of C4 and of intermediate C4 from oral dosing of example 7 in rats
• Wistar Han rat, 185-197 g, male, N=8, purchased from Beijing Vital River Co. LTD. Qualification No.: SCXK(J) 2016-0011 11400700240027. Fasted overnight and fed 4 hr post dose. PO: 5 mg/kg (10 mL/kg) via oral gavage(N=8). Sampling at 1, 4, 8 and 24 hr , 4 time points, terminal bleeding for plasma, liver, lymph nodes and spleen collected at each time point

T1 sequence (P14902 whole entry): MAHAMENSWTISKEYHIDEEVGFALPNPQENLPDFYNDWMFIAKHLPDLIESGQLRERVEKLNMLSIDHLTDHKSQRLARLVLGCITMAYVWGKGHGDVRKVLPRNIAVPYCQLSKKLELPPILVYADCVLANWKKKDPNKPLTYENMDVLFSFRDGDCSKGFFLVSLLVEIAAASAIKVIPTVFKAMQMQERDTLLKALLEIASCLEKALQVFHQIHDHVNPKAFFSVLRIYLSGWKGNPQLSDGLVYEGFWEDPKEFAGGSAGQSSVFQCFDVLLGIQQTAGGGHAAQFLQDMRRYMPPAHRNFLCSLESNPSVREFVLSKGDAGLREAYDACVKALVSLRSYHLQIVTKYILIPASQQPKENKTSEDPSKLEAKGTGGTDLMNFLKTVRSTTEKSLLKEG

As to `NS(=O)(=O)NCCNc1nonc1C(=NO)Nc1ccc(F)c(Br)c1` [INCB204360], the “conversion of T cells into CD4+FoxP3+ Tregs” value in series [1] is “blocked the conversion”. Also, the “inhibition of tumor growth” value in the series with PANO2 pancreatic cells (PANO2 syngeneic model, immunocompetent mice) is “significant dose-dependent inhibition of tumor growth”. Besides, the “effect on tumor growth” value in the series on PANO2 pancreatic cells (same tumor implanted in immune-deficient mice) is “without effect”.
Turning to `CCCCCCCCCCCCCCCC(=O)OCC(COC(=O)CCCCCCCCCCCCCCC)OC(=O)CC(C)CC(=O)OCOC(=O)C[C@@H](C)c1ccc(N(CC(C)C)C2CCOCC2)c(Nc2cnc(Cl)cn2)c1` (stereo partly drawn) [example 7, 1-(1,3-bis(palmitoyloxy)propan-2-yl) 5-((((R)-3-(3-((5-chloropyrazin-2-yl)amino)-4-(isobutyl(tetrahydro-2H-pyran-4-yl)amino)phenyl)butanoyl)oxy)methyl) 3-methylpentanedioate], the DNAUC0_20 result in series [2] was “not detected”. Also, the “PBMC TOX PXC50” value in series [3] is recorded as under 5. For the same molecule, the IC50 in series [4] is 1000 nM. In addition, in series [5] (1 hr), the “liver Concentration Mean” value is on record as “BQL”, the “liver Concentration individual” value is on record as “BQL”, the “lymph node Concentration Mean” value is listed as “BQL” and the “lymph node Concentration individual” value was “BQL”. For the same molecule, in series [5] (1 hr), the “plasma Concentration Mean” value is on record as “BQL”, the “plasma Concentration individual” value is listed as “BQL”, the “spleen Concentration Mean” value was “BQL” and the “spleen Concentration individual” value is “BQL”. Besides, in series [5] (4 hr), the “liver Concentration Mean” value is recorded as “BQL”, the “liver Concentration individual” value was “BQL”, the “lymph node Concentration Mean” value is “BQL” and the “lymph node Concentration individual” value is recorded as “BQL”. In series [5] (4 hr), the “plasma Concentration Mean” value is listed as “BQL”, the “plasma Concentration individual” value is on record as “BQL”, the “spleen Concentration Mean” value is listed as “BQL” and the “spleen Concentration individual” value was “BQL”. For the same molecule, in series [5] (8 hr), the “liver Concentration Mean” value was “BQL”, the “liver Concentration individual” value is recorded as “BQL”, the “lymph node Concentration Mean” value is “BQL” and the “lymph node Concentration individual” value was “BQL”. Further, in series [5] (8 hr), the “plasma Concentration Mean” value is given as “BQL”, the “plasma Concentration individual” value was “BQL”, the “spleen Concentration Mean” value is recorded as “BQL” and the “spleen Concentration individual” value is reported as “BQL”. In series [5] (24 hr), the “liver Concentration Mean” value is given as “BQL”, the “liver Concentration individual” value is on record as “BQL”, the “lymph node Concentration Mean” value was “BQL” and the “lymph node Concentration individual” value was “BQL”. For the same molecule, in series [5] (24 hr), the “plasma Concentration Mean” value was “BQL”, the “plasma Concentration individual” value is given as “BQL”, the “spleen Concentration Mean” value was “BQL” and the “spleen Concentration individual” value was “BQL”.

(Values after patent US20210186960A1, “MODULATORS OF INDOLEAMINE 2,3-DIOXYGENASE” (GLAXOSMITHKLINE INTELLECTUAL PROPERTY DEVELOPMENT LIMITED, priority 2017, published 2021).)
